# In ChEMBL document CHEMBL1177794, “Broad spectrum alkynyl inhibitors of T315I Bcr-Abl” (Bioorg Med Chem Lett, 2010):
# Assays:
# [1] = tested on: Tyrosine-protein kinase ABL1 (Homo sapiens), P00519 [Q252H]; assay: Inhibition of phosphorylated ABL1 Q252H mutant at 10 uM; settings: values are per cent of control
# [2] = molecular target: Activin receptor type-2A (Homo sapiens) (UniProt P27037); assay: Inhibition of ACVR2A at 10 uM; settings: values are per cent of control
# [3] = molecular target: Atypical kinase COQ8B, mitochondrial (Homo sapiens) (UniProt Q96D53); assay: Inhibition of ADCK4 at 10 uM; settings: values are per cent of control
# [4] = molecular target: RAC-gamma serine/threonine-protein kinase (Homo sapiens) (UniProt Q9Y243); assay: Inhibition of AKT3 at 10 uM; settings: values are per cent of control
# [5] = molecular target: Serine/threonine-protein kinase B-raf (Homo sapiens) (UniProt P15056); assay: Inhibition of BRAF at 10 uM; settings: values are per cent of control
# [6] = molecular target: Calcium/calmodulin-dependent protein kinase type 1G (Homo sapiens) (UniProt Q96NX5); assay: Inhibition of CAMK1G at 10 uM; settings: values are per cent of control
# [7] = molecular target: Calcium/calmodulin-dependent protein kinase type IV (Homo sapiens) (UniProt Q16566); assay: Inhibition of CAMK4 at 10 uM; settings: values are per cent of control
# [8] = molecular target: Dual specificity protein kinase CLK3 (Homo sapiens) (UniProt P49761); assay: Inhibition of CLK3 at 10 uM; settings: values are per cent of control
# Chain of Dual specificity protein kinase CLK3 (Homo sapiens) (P49761 whole entry, looked up): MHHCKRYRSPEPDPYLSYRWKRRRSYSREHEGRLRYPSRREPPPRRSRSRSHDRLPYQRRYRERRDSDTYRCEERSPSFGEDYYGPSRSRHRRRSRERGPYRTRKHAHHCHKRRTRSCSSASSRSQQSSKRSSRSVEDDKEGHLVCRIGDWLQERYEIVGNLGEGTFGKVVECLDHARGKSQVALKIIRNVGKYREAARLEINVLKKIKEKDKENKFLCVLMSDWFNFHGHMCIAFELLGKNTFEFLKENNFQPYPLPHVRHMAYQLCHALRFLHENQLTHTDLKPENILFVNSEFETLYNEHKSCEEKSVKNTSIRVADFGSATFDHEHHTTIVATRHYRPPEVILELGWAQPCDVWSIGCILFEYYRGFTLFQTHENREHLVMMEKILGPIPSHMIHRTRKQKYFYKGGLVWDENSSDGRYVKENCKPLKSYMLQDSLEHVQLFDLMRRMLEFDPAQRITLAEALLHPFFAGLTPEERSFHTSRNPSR
# [9] = molecular target: Myotonin-protein kinase (Homo sapiens) (UniProt Q09013); assay: Inhibition of DMPK at 10 uM; settings: values are per cent of control
# Chain of Myotonin-protein kinase (Homo sapiens) (Q09013 whole entry): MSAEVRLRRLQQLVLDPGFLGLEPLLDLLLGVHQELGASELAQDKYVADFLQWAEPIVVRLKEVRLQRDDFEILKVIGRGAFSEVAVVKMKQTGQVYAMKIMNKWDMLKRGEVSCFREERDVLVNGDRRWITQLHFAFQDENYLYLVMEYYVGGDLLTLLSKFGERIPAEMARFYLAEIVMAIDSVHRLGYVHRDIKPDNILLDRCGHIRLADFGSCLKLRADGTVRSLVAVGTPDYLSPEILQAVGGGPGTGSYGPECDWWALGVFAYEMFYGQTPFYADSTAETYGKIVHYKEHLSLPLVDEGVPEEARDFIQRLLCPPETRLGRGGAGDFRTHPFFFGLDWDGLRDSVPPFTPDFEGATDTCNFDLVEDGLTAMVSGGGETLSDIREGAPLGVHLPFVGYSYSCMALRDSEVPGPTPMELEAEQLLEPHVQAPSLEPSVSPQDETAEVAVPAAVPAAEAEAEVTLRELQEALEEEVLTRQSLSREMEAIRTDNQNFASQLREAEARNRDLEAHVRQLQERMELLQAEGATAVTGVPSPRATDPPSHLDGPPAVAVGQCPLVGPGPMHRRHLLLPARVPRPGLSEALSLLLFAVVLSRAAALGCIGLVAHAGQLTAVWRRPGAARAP
# [10] = molecular target: Ephrin type-A receptor 4 (Homo sapiens) (UniProt P54764); assay: Inhibition of EPHA4 at 10 uM; settings: values are per cent of control
# [11] = molecular target: Ephrin type-B receptor 6 (Homo sapiens) (UniProt O15197); assay: Inhibition of EPHB6 at 10 uM; settings: values are per cent of control
# [12] = molecular target: Mitogen-activated protein kinase 4 (Homo sapiens) (UniProt P31152); assay: Inhibition of ERK4 at 10 uM; settings: values are per cent of control
# [13] = molecular target: Mitogen-activated protein kinase 15 (Homo sapiens) (UniProt Q8TD08); assay: Inhibition of ERK8 at 10 uM; settings: values are per cent of control
# [14] = molecular target: Fibroblast growth factor receptor 3 (Homo sapiens) (UniProt P22607); assay: Inhibition of FGFR3 at 10 uM; settings: values are per cent of control
# [15] = tested on: Receptor-type tyrosine-protein kinase FLT3 (Homo sapiens), P36888 [D835Y]; assay: Inhibition of FLT3 D835Y mutant at 10 uM; settings: values are per cent of control
# [16] = Inhibition of FLT3 ITD mutant at 10 uM; settings: values are per cent of control
# [17] = molecular target: Homeodomain-interacting protein kinase 2 (Homo sapiens) (UniProt Q9H2X6); assay: Inhibition of HIPK2 at 10 uM; settings: values are per cent of control
# [18] = molecular target: Mitogen-activated protein kinase kinase kinase kinase 1 (Homo sapiens) (UniProt Q92918); assay: Inhibition of HPK1 at 10 uM; settings: values are per cent of control
# [19] = molecular target: Hormonally up-regulated neu tumor-associated kinase (Homo sapiens) (UniProt P57058); assay: Inhibition of HUNK at 10 uM; settings: values are per cent of control
# [20] = tested on: Mast/stem cell growth factor receptor Kit (Homo sapiens), P10721 [D816V]; assay: Inhibition of KIT D816V mutant at 10 uM; settings: values are per cent of control
# [21] = tested on: Hepatocyte growth factor receptor (Homo sapiens), P08581 [M1250T]; assay: Inhibition of MET M1250T mutant at 10 uM
# [22] = tested on: Hepatocyte growth factor receptor (Homo sapiens), P08581 [Y1235D]; assay: Inhibition of MET Y1235D mutant at 10 uM
# Chain of Hepatocyte growth factor receptor (Homo sapiens), P08581 [Y1235D] (P08581 whole entry Y1235D): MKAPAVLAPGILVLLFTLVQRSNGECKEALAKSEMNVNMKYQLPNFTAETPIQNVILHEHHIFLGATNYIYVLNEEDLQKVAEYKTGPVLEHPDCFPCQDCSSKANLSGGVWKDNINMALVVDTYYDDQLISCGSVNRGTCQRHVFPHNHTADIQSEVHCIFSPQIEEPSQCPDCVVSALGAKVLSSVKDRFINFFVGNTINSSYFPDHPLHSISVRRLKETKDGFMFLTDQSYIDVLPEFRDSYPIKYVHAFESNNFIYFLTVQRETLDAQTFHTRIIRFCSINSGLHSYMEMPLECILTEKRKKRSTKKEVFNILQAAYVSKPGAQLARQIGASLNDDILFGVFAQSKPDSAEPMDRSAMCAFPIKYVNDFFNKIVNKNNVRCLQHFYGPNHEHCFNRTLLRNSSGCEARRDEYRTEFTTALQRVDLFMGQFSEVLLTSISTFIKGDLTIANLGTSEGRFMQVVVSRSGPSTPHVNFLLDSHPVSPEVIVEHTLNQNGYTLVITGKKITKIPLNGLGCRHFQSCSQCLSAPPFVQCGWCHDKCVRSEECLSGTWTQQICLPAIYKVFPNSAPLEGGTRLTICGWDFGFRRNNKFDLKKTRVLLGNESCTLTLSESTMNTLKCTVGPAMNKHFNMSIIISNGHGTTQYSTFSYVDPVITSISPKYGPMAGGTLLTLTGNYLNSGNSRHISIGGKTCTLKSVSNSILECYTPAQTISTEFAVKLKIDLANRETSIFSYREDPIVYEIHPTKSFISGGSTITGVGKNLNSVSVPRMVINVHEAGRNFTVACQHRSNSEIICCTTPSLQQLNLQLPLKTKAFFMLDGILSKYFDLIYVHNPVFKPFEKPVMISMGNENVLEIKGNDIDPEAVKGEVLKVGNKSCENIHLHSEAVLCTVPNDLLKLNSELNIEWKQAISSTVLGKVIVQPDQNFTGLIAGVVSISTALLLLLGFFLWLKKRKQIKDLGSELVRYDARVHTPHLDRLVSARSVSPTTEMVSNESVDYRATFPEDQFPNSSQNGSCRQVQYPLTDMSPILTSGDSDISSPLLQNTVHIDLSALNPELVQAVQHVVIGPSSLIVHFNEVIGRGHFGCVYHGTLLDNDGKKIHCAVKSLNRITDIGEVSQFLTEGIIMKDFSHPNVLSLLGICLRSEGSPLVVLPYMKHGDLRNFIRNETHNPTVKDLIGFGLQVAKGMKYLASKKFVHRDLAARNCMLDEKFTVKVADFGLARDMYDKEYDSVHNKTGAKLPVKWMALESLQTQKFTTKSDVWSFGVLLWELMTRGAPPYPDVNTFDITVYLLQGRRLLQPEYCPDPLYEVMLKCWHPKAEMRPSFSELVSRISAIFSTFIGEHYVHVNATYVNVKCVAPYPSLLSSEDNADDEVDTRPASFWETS
# [23] = molecular target: Serine/threonine-protein kinase Nek1 (Homo sapiens) (UniProt Q96PY6); assay: Inhibition of NEK1 at 10 uM
# [24] = molecular target: Serine/threonine-protein kinase PAK 6 (Homo sapiens) (UniProt Q9NQU5); assay: Inhibition of PAK6 at 10 uM
# [25] = molecular target: Serine/threonine-protein kinase VRK2 (Homo sapiens) (UniProt Q86Y07); assay: Inhibition of VRK2 at 10 uM; settings: values are per cent of control
# [26] = molecular target: Phosphorylase b kinase gamma catalytic chain, skeletal muscle/heart isoform (Homo sapiens) (UniProt Q16816); assay: Inhibition of PHKG1 at 10 uM
# [27] = molecular target: Serine/threonine-protein kinase pim-3 (Homo sapiens) (UniProt Q86V86); assay: Inhibition of PIM3 at 10 uM
# [28] = molecular target: Serine/threonine-protein kinase PLK4 (Homo sapiens) (UniProt O00444); assay: Inhibition of PLK4 at 10 uM
# [29] = molecular target: Protein kinase C epsilon type (Homo sapiens) (UniProt Q02156); assay: Inhibition of PRKCE at 10 uM
# [30] = molecular target: Serine/threonine-protein kinase SIK3 (Homo sapiens) (UniProt Q9Y2K2); assay: Inhibition of QSK at 10 uM
# [31] = molecular target: Ribosomal protein S6 kinase alpha-5 (Homo sapiens) (UniProt O75582); assay: Inhibition of RPS6KA5 N-terminal domain1 at 10 uM
# [32] = molecular target: Uncharacterized serine/threonine-protein kinase SBK3 (Homo sapiens) (UniProt P0C264); assay: Inhibition of SgK110 at 10 uM
# [33] = molecular target: Serine/threonine-protein kinase Sgk3 (Homo sapiens) (UniProt Q96BR1); assay: Inhibition of SGK3 at 10 uM
# [34] = molecular target: STE20-like serine/threonine-protein kinase (Homo sapiens) (UniProt Q9H2G2); assay: Inhibition of SLK at 10 uM
# [35] = molecular target: cAMP-dependent protein kinase catalytic subunit alpha (Homo sapiens) (UniProt P17612); assay: Inhibition of PKAC-alpha at 10 uM; settings: values are per cent of control
# [36] = molecular target: Tyrosine-protein kinase Fyn (Homo sapiens) (UniProt P06241); assay: Inhibition of FYN at 10 uM; values are per cent of control
# [37] = molecular target: Serine/threonine-protein kinase 10 (Homo sapiens) (UniProt O94804); assay: Inhibition of LOK at 10 uM; values are per cent of control
# Chain of Serine/threonine-protein kinase 10 (Homo sapiens) (O94804 whole entry, looked up): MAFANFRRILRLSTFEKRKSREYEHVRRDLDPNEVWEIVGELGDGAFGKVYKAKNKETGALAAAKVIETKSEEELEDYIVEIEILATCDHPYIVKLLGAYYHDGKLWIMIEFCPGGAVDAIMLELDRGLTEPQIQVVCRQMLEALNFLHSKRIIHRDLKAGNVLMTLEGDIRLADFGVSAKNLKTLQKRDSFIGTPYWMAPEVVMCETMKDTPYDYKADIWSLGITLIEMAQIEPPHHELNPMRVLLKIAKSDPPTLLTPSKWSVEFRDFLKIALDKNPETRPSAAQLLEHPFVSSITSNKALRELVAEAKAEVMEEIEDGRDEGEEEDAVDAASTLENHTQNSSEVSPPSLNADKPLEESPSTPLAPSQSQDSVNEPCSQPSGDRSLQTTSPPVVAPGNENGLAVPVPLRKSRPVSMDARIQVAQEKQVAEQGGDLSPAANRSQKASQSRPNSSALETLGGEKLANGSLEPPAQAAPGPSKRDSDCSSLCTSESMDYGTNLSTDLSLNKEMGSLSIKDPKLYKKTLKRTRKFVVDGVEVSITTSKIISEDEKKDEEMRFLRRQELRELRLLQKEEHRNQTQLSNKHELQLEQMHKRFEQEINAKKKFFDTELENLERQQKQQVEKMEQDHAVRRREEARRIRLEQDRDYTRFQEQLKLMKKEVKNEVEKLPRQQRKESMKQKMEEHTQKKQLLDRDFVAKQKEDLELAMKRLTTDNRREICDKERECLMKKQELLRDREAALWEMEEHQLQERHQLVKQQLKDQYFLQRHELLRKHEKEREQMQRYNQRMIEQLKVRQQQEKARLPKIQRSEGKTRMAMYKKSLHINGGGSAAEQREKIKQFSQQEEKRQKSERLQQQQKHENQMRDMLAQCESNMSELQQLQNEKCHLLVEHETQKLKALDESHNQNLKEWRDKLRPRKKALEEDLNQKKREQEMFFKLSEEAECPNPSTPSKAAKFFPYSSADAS
# [38] = molecular target: Cyclin-dependent kinase 3 (Homo sapiens) (UniProt Q00526); assay: Inhibition of CDK3 at 10 uM; values are per cent of control
# Chain of Cyclin-dependent kinase 3 (Homo sapiens) (Q00526 whole entry, looked up, canonical isoform): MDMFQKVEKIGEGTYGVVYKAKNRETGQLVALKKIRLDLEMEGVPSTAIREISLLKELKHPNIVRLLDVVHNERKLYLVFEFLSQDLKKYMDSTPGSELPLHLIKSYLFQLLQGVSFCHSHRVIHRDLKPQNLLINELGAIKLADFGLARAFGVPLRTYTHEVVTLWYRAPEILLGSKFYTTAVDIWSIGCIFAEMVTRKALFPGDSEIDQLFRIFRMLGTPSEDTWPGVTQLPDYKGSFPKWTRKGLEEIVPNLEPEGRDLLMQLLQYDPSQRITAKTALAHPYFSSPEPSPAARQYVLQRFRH
# [39] = molecular target: Casein kinase I isoform delta (Homo sapiens) (UniProt P48730); assay: Inhibition of CSNK1D at 10 uM; values are per cent of control
# Chain of Casein kinase I isoform delta (Homo sapiens) (P48730 whole entry, looked up, canonical isoform): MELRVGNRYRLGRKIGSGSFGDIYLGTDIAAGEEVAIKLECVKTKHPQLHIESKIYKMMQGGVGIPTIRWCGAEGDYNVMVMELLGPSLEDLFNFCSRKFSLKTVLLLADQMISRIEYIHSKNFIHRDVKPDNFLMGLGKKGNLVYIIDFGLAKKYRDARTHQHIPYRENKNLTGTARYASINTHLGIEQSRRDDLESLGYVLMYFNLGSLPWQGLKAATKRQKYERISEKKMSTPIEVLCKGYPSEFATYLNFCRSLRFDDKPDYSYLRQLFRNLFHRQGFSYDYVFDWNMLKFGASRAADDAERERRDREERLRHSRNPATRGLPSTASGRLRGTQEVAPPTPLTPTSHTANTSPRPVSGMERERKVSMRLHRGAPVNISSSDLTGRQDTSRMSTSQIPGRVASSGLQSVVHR
# [40] = molecular target: CDK4/Cyclin D3 (Homo sapiens) (UniProt P11802+P30281); assay: Inhibition of CDK4/cyclin D3 at 10 uM; values are per cent of control
# [41] = tested on: Proto-oncogene tyrosine-protein kinase receptor Ret (Homo sapiens), P07949 [V804L]; assay: Inhibition of RET V804L mutant at 10 uM; values are per cent of control
# [42] = tested on: Epidermal growth factor receptor (Homo sapiens), P00533 [T790M]; assay: Inhibition of EGFR T790M mutant at 10 uM; values are per cent of control
# [43] = molecular target: Tyrosine-protein kinase JAK3 (Homo sapiens) (UniProt P52333); assay: Inhibition of JAK3 JH1 catalytic domain at 10 uM; values are per cent of control
# Chain of Activin receptor type-2A (Homo sapiens) (P27037 whole entry): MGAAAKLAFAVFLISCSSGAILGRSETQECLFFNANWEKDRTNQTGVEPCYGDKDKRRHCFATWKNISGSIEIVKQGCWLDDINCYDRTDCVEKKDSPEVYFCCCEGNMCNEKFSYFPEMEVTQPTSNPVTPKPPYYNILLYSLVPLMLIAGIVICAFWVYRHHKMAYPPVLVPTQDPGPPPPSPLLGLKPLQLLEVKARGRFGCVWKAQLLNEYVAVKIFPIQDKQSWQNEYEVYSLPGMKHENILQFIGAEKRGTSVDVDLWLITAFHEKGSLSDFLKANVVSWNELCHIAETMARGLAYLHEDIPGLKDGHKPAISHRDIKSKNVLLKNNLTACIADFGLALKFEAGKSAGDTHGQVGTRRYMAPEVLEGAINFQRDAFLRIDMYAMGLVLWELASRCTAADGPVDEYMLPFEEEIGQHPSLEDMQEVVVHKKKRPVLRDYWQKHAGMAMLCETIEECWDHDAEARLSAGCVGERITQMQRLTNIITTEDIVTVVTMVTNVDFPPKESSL
compound,measurement,setting,value
CCN1CCN(Cc2ccc(NC(=O)c3ccc(C)c(C#Cc4cccnc4)c3)cc2C(F)(F)F)CC1,"residual binding, % of control",[1],0.7%
same,"residual binding, % of control",[2],100%
same,"residual binding, % of control",[3],85%
same,"residual binding, % of control",[4],48%
same,"residual binding, % of control",[5],0.05%
same,"residual binding, % of control",[6],100%
same,"residual binding, % of control",[7],100%
same,"residual binding, % of control",[8],70%
same,"residual binding, % of control",[9],100%
same,"residual binding, % of control",[10],0%
same,"residual binding, % of control",[11],8.8%
same,"residual binding, % of control",[12],100%
same,"residual binding, % of control",[13],1.8%
same,"residual binding, % of control",[14],0.3%
same,"residual binding, % of control",[15],0.5%
same,"residual binding, % of control",[16],0.1%
same,"residual binding, % of control",[17],34%
same,"residual binding, % of control",[18],0.4%
same,"residual binding, % of control",[19],54%
same,"residual binding, % of control",[20],2%
same,inhibition,[21],73%
same,inhibition,[22],61%
same,inhibition,[23],77%
same,inhibition,[24],100%
same,"residual binding, % of control",[25],95%
same,inhibition,[26],88%
same,inhibition,[27],100%
same,inhibition,[28],88%
same,inhibition,[29],54%
same,inhibition,[30],70%
same,inhibition,[31],59%
same,inhibition,[32],100%
same,inhibition,[33],6.2%
same,inhibition,[34],0.1%
same,"residual binding, % of control",[35],8.4%
same,"level, % of control",[36],0.35%
same,"level, % of control",[37],0%
same,"level, % of control",[38],24%
same,"level, % of control",[39],29%
same,"level, % of control",[40],54%
same,"level, % of control",[41],0%
same,"level, % of control",[42],24%
same,"level, % of control",[43],2.3%
CCN1CCN(Cc2ccc(NC(=O)c3ccc(C)c(C#Cc4cnc5[nH]ccc5c4)c3)cc2C(F)(F)F)CC1,"residual binding, % of control",[1],0.2%
same,"residual binding, % of control",[2],100%
same,"residual binding, % of control",[3],82%
same,"residual binding, % of control",[4],82%
same,"residual binding, % of control",[5],0.45%
same,"residual binding, % of control",[6],92%
same,"residual binding, % of control",[7],100%
same,"residual binding, % of control",[8],94%
same,"residual binding, % of control",[9],27%
same,"residual binding, % of control",[10],0.25%
same,"residual binding, % of control",[11],0.85%
same,"residual binding, % of control",[12],26%
same,"residual binding, % of control",[13],2.6%
same,"residual binding, % of control",[14],0.15%
same,"residual binding, % of control",[15],0.85%
same,"residual binding, % of control",[16],0.15%
same,"residual binding, % of control",[17],46%
same,"residual binding, % of control",[18],0.05%
same,"residual binding, % of control",[19],21%
same,"residual binding, % of control",[20],0.65%
same,inhibition,[21],59%
same,inhibition,[22],4.9%
same,inhibition,[23],50%
same,inhibition,[24],85%
same,"residual binding, % of control",[25],90%
same,inhibition,[26],100%
same,inhibition,[27],100%
same,inhibition,[28],97%
same,inhibition,[29],78%
same,inhibition,[30],77%
same,inhibition,[31],20%
same,inhibition,[32],42%
same,inhibition,[33],11%
same,inhibition,[34],0.3%
same,"residual binding, % of control",[35],27%
same,"level, % of control",[36],0.25%
same,"level, % of control",[37],0%
same,"level, % of control",[38],32%
same,"level, % of control",[39],22%
same,"level, % of control",[40],65%
same,"level, % of control",[41],0%
same,"level, % of control",[42],13%
same,"level, % of control",[43],3.5%
